21 compounds from ChEMBL document CHEMBL4513161, “CO-ADD screening of MMV (CH) - Pandemic Response Box” (2021) can be followed below.

For assay [1], the system named is Pseudomonas aeruginosa. Description: microbe, parasite or virus in culture. The conditions noted are these: ATCC 27853, 18 h, ASSAY_TEST Inhibition of Bacterial Growth, detection method Absorption (OD600), MEDIA CAMHB, plate type 384well, NBS, CORNING #3640.
Description: Antibacterial activity against Pseudomonas aeruginosa ATCC 27853 (CO-ADD:GN_042); MIC in CAMBH media using NBS plates, by OD(600)
The subject of the next assay is Acinetobacter baumannii. Description: microbe, parasite or virus in culture. The conditions noted are these: ATCC 19606, 18 h, ASSAY_TEST Inhibition of Bacterial Growth, detection method Absorption (OD600), MEDIA CAMHB, plate type 384well, NBS, CORNING #3640.
The subject of a further assay is Staphylococcus aureus. Nature of the assay: microbe, parasite or virus in culture. The conditions noted are these: ATCC 43300, 18 h, ASSAY_TEST Inhibition of Bacterial Growth, detection method Absorption (OD600), MEDIA CAMHB, plate type 384well, NBS, CORNING #3640.
For the next assay, the system named is Klebsiella pneumoniae. Nature of the assay: microbe, parasite or virus in culture. The settings on record: ATCC 700603, 18 h, ASSAY_TEST Inhibition of Bacterial Growth, detection method Absorption (OD600), MEDIA CAMHB, plate type 384well, NBS, CORNING #3640.
A further assay has as its system Escherichia coli. Nature of the assay: microbe, parasite or virus in culture. The settings on record: ATCC 25922, 18 h, ASSAY_TEST Inhibition of Bacterial Growth, detection method Absorption (OD600), MEDIA CAMHB, plate type 384well, NBS, CORNING #3640.
Assay [2] deals with Pseudomonas aeruginosa. Description: Antibacterial activity against Pseudomonas aeruginosa PAO397 [PAO1 d(mexAB-oprM) d(mexCD-oprJ) d(mexEF-oprN) d(mexJKL) d(mexXY) d(opmH)] (CO-ADD:GN_211); MIC in CAMBH media using NBS plates, by OD(600). The format is functional. The settings on record: ASSAY_TEST Inhibition of Bacterial Growth, detection method Absorption (OD600), MEDIA CAMHB, plate type 384well, CORNING #3640, time 18 hr.

The test system of the next assay is Candida albicans. Nature of the assay: microbe, parasite or virus in culture. The settings on record: ATCC 90028, ASSAY_TEST Inhibition of Fungal Growth, detection method Absorption (OD530), plate type 384well, NBS, CORNING #3640.
Another assay has as its system HEK293. Nature of the assay: cells. The format is functional, Homo sapiens, ATCC CRL1573. The conditions noted are these: Homo sapiens, ATCC CRL1573, HEK293; ASSAY_TEST Inhibition of Cell Viability; detection method Resazurin; Fluorescence (ex560/em590); MEDIA DMEM with 10% FBS; plate type 384well; TC; CORNING #3712; time 18 hr; read-out: CC50.

≈ marks a conversion by molar mass, not a printed value.

Description for Acinetobacter baumannii: Antibacterial activity against Acinetobacter baumannii ATCC 19606 (CO-ADD:GN_034); MIC in CAMBH media using NBS plates, by OD600
Description for Candida albicans: Antifungal activity against Candida albicans ATCC 90028 (CO-ADD:FG_001); MIC in YNB media using NBS plates, by OD630
Description for Cryptococcus neoformans: Antifungal activity against Cryptococcus neoformans H99 ATCC 208821 (CO-ADD:FG_002); MIC in YNB media using NBS plates, by Resazurin OD(600-570)
Description for Escherichia coli: Antibacterial activity against Escherichia coli ATCC 25922 (CO-ADD:GN_001); MIC in CAMBH media using NBS plates, by OD(600)
Description for Klebsiella pneumoniae: Antibacterial activity against Klebsiella pneumoniae MDR ATCC 70063 (CO-ADD:GN_003); MIC in CAMBH media using NBS plates, by OD(600)
Description for Staphylococcus aureus: Antibacterial activity against Staphylococcus aureus MRSA ATCC 43300 (CO-ADD:GP_020); MIC in CAMBH media, using NBS plates, by OD(600)

Take `O=C(Nc1nnc(-c2ccc(Cl)cc2)o1)c1nc2ccccc2s1`: the MIC in the assay on Pseudomonas aeruginosa [1], in the assay with Acinetobacter baumannii, with Staphylococcus aureus, in the assay on Klebsiella pneumoniae, in the assay with Escherichia coli and with Cryptococcus neoformans was above 20 µM in each case. In addition, the MIC in the assay on Pseudomonas aeruginosa [2] and in the assay with Candida albicans was above 20 µM in each case. In the assay with HEK293, the CC50 was above 20 µM.

On to `Cc1ccc(S(=O)(=O)Nc2cccc3cccnc23)cc1`, for which the MIC with Pseudomonas aeruginosa [1], in the assay with Acinetobacter baumannii, against Staphylococcus aureus, in the assay with Klebsiella pneumoniae, with Escherichia coli and with Cryptococcus neoformans was above 20 µM in each case. The MIC against Pseudomonas aeruginosa [2] and in the assay with Candida albicans was above 20 µM each time. Moreover, the CC50 in the assay with HEK293 amounted to 4.05 µM.

With `Oc1c(C(Nc2ccccn2)c2ccccc2)ccc2cccnc12` (centres undefined), the MIC is above 20 µM in the assay with Pseudomonas aeruginosa [1]; above 20 µM against Acinetobacter baumannii; above 20 µM against Staphylococcus aureus; above 20 µM in the assay with Klebsiella pneumoniae; above 20 µM in the assay on Escherichia coli; 20 µM (≈ 6.55 µg/mL) in the assay with Cryptococcus neoformans. Further, the figures for the MIC in the assay on Pseudomonas aeruginosa [2] and in the assay on Candida albicans were above 20 µM and 20 µM (≈ 6.55 µg/mL), respectively. The CC50 in the assay with HEK293 was 19.6 µM.

As to `COc1ccc(CNC(=O)C(NS(=O)(=O)c2ccc3nc(C)sc3c2)C(C)C)cc1` (centres undefined), the MIC in the assay with Pseudomonas aeruginosa [1], against Acinetobacter baumannii, in the assay with Staphylococcus aureus, against Klebsiella pneumoniae, against Escherichia coli and against Cryptococcus neoformans was above 20 µM each time. The MIC in the assay with Pseudomonas aeruginosa [2] and in the assay on Candida albicans was above 20 µM in each case. Also, in the assay with HEK293, the CC50 was above 20 µM.

Take `O=[N+]([O-])c1cn(Cc2nc(O)nc(O)c2Br)cn1`: the MIC against Pseudomonas aeruginosa [1], with Acinetobacter baumannii, in the assay on Staphylococcus aureus, with Klebsiella pneumoniae, in the assay on Escherichia coli and against Cryptococcus neoformans was above 20 µM each time. The MIC with Pseudomonas aeruginosa [2] and in the assay on Candida albicans was above 20 µM in each case. Moreover, in the assay with HEK293, the CC50 was above 20 µM.

In the case of `Cc1ccn2c(C(=O)NCc3ccccc3)c(C)nc2c1`, the MIC in the assay on Pseudomonas aeruginosa [1], against Acinetobacter baumannii, in the assay with Staphylococcus aureus, in the assay on Klebsiella pneumoniae, in the assay with Escherichia coli and against Cryptococcus neoformans was above 20 µM each time. In addition, the MIC in the assay on Pseudomonas aeruginosa [2] and in the assay with Candida albicans was above 20 µM each time. The CC50 in the assay on HEK293 is above 20 µM.

For the compound `Cc1c[nH]c(=O)nc1NCc1ccccc1`, the MIC in the assay on Pseudomonas aeruginosa [1], against Acinetobacter baumannii, in the assay with Staphylococcus aureus, with Klebsiella pneumoniae, in the assay with Escherichia coli and against Cryptococcus neoformans was above 20 µM each time. The MIC against Pseudomonas aeruginosa [2] and in the assay with Candida albicans was above 20 µM throughout. For the same compound, in the assay with HEK293, the CC50 is above 20 µM.

With `CC(C)Cn1c(=O)n(C)c(=O)c2c(-c3cncn3C)n(Cc3cccc4ccccc34)nc21`, the MIC in the assay on Pseudomonas aeruginosa [1], in the assay with Acinetobacter baumannii, in the assay with Staphylococcus aureus, against Klebsiella pneumoniae, against Escherichia coli and in the assay on Cryptococcus neoformans was above 20 µM throughout. Besides, the MIC against Pseudomonas aeruginosa [2] and against Candida albicans was above 20 µM in each case. The CC50 in the assay on HEK293 was above 20 µM.

With `O=C(NC12CC3CC(CC(C3)C1)C2)c1cc2ccccc2[nH]1`, the MIC against Pseudomonas aeruginosa [1], against Acinetobacter baumannii, in the assay on Staphylococcus aureus, in the assay on Klebsiella pneumoniae, in the assay with Escherichia coli and in the assay with Cryptococcus neoformans was above 20 µM in each case. The MIC with Pseudomonas aeruginosa [2] and with Candida albicans was above 20 µM in each case. In addition, in the assay on HEK293, the CC50 is above 20 µM.

Take `CCCCCc1ccc(C(=O)NCCn2cc(CCCCCc3c[nH]c(N)n3)nn2)cc1`: the MIC in the assay with Pseudomonas aeruginosa [1], with Acinetobacter baumannii, with Staphylococcus aureus, in the assay with Klebsiella pneumoniae, with Escherichia coli and against Cryptococcus neoformans was above 20 µM each time. In addition, the MIC with Pseudomonas aeruginosa [2] and with Candida albicans was above 20 µM throughout. Moreover, the CC50 with HEK293 is above 20 µM.

For `N#Cc1c(F)c(Cl)c(NCc2ccccc2)c(C#N)c1F`, the MIC in the assay with Pseudomonas aeruginosa [1] was above 20 µM; against Acinetobacter baumannii it was above 20 µM; against Staphylococcus aureus it was 5 µM (≈ 1.52 µg/mL); against Klebsiella pneumoniae, above 20 µM; against Escherichia coli, above 20 µM; against Cryptococcus neoformans, above 20 µM. For the same compound, the MIC against Pseudomonas aeruginosa [2] and in the assay with Candida albicans was above 20 µM throughout. The CC50 with HEK293 was found to be 5.16 µM.

Turning to `Cc1cc(O)c2c(c1)C(=O)c1c(I)c(O)c(I)c(O)c1C2=O`, the MIC was above 20 µM against Pseudomonas aeruginosa [1]; above 20 µM with Acinetobacter baumannii; 20 µM (≈ 10.4 µg/mL) in the assay on Staphylococcus aureus; above 20 µM with Klebsiella pneumoniae; above 20 µM in the assay with Escherichia coli; above 20 µM against Cryptococcus neoformans. Further, the MIC with Pseudomonas aeruginosa [2] and in the assay on Candida albicans was above 20 µM each time. Besides, in the assay on HEK293, the CC50 is above 20 µM.

On to `O=C(O)c1sccc1S(=O)(=O)n1ccc2cc(Br)ccc21`, for which the MIC in the assay with Pseudomonas aeruginosa [1], in the assay with Acinetobacter baumannii, against Staphylococcus aureus, in the assay with Klebsiella pneumoniae, in the assay on Escherichia coli and in the assay with Cryptococcus neoformans was above 20 µM each time. The MIC against Pseudomonas aeruginosa [2] and in the assay with Candida albicans was above 20 µM each time. The CC50 in the assay on HEK293 was above 20 µM.

Turning to `Oc1ccc2[nH]c(-c3ccccc3)nc2c1`, the MIC with Pseudomonas aeruginosa [1], with Acinetobacter baumannii, in the assay on Staphylococcus aureus, in the assay on Klebsiella pneumoniae, in the assay with Escherichia coli and against Cryptococcus neoformans was above 20 µM in each case. Moreover, the MIC against Pseudomonas aeruginosa [2] and in the assay with Candida albicans was above 20 µM each time. Further, in the assay with HEK293, the CC50 is above 20 µM.

Regarding `Cc1cccc(CC(=O)N[C@H]2CCOC2=O)c1`, the MIC with Pseudomonas aeruginosa [1], with Acinetobacter baumannii, in the assay on Staphylococcus aureus, in the assay on Klebsiella pneumoniae, against Escherichia coli and with Cryptococcus neoformans was above 20 µM in each case. In addition, the MIC in the assay on Pseudomonas aeruginosa [2] and in the assay on Candida albicans was above 20 µM in each case. The CC50 in the assay on HEK293 was above 20 µM.

Turning to `CCCCc1ccc(-c2cc(C(=O)O)cc(-c3ccc(Cl)cc3)n2)cc1`, the MIC in the assay with Pseudomonas aeruginosa [1], in the assay with Acinetobacter baumannii, against Staphylococcus aureus, against Klebsiella pneumoniae, in the assay with Escherichia coli and with Cryptococcus neoformans was above 20 µM throughout. Also, the MIC against Pseudomonas aeruginosa [2] and in the assay on Candida albicans was above 20 µM throughout. For the same compound, the CC50 in the assay with HEK293 was above 20 µM.

`Nc1nc(-c2ccccc2)nc2c1ncn2[C@@H]1O[C@H](COS(=O)(=O)NC(=O)c2ccccc2O)[C@@H](O)[C@H]1O`: the MIC against Pseudomonas aeruginosa [1], against Acinetobacter baumannii, against Staphylococcus aureus, in the assay with Klebsiella pneumoniae, against Escherichia coli and against Cryptococcus neoformans was above 20 µM in each case. Besides, the MIC in the assay with Pseudomonas aeruginosa [2] and against Candida albicans was above 20 µM in each case. For the same compound, the CC50 in the assay with HEK293 is above 20 µM.

For `CCc1nc(N)nc(N)c1C#CCc1ccccc1`, the MIC against Pseudomonas aeruginosa [1] was above 20 µM; against Acinetobacter baumannii, above 20 µM; in the assay with Staphylococcus aureus, 20 µM (≈ 5.05 µg/mL); against Klebsiella pneumoniae, above 20 µM; against Escherichia coli it was above 20 µM; against Cryptococcus neoformans, above 20 µM. Further, the MIC in the assay on Pseudomonas aeruginosa [2] and with Candida albicans was above 20 µM in each case. Moreover, the CC50 in the assay on HEK293 was above 20 µM.

For the compound `NC(=O)c1[nH]c2ccc(S(N)(=O)=O)cc2c1-c1ccccc1`, the MIC against Pseudomonas aeruginosa [1], against Acinetobacter baumannii, in the assay on Staphylococcus aureus, in the assay on Klebsiella pneumoniae, in the assay on Escherichia coli and against Cryptococcus neoformans was above 20 µM throughout. Besides, the MIC with Pseudomonas aeruginosa [2] and against Candida albicans was above 20 µM each time. Moreover, the CC50 in the assay with HEK293 is above 20 µM.

For the compound `CCc1cc(Cc2cnc(N)nc2N)cc2c1N(C)CCC2C` (centres undefined), the MIC in the assay with Pseudomonas aeruginosa [1] is above 20 µM; in the assay with Acinetobacter baumannii, above 20 µM; in the assay on Staphylococcus aureus, 10 µM (≈ 3.11 µg/mL); against Klebsiella pneumoniae, above 20 µM; against Escherichia coli it was above 20 µM; against Cryptococcus neoformans, above 20 µM. Besides, the MIC against Pseudomonas aeruginosa [2] and in the assay on Candida albicans was above 20 µM each time. Also, the CC50 in the assay with HEK293 is above 20 µM.

For the compound `C=CCc1cc(Cc2cnc(N)nc2N)cc(OC)c1O`, the MIC in the assay on Pseudomonas aeruginosa [1] was above 20 µM; in the assay on Acinetobacter baumannii it was above 20 µM; with Staphylococcus aureus, 2.5 µM (≈ 0.716 µg/mL); in the assay with Klebsiella pneumoniae it was 10 µM (≈ 2.86 µg/mL); with Escherichia coli, 2.5 µM (≈ 0.716 µg/mL); in the assay with Cryptococcus neoformans it was above 20 µM. In addition, the figures for the MIC against Pseudomonas aeruginosa [2] and against Candida albicans were 10 µM (≈ 2.86 µg/mL) and above 20 µM, respectively. Further, the CC50 in the assay on HEK293 is above 20 µM.

In general, CC50 refers to the concentration at which the toxic effect on the cells reaches its halfway point.
